Columns and labels:
[1] = system: N-STZ-1.5 rat (model of type 2 diabetes with sulfonylurea secondary failure); test: Oral glucose loading in N-STZ-1.5 rats with sulfonylurea secondary failure (Experimental Example 1); format: in vivo; conditions: for Increment of plasma insulin level: rats pretreated with glibenclamide for 4 weeks; for plasma glucose level-lowering effect (in words) / plasma insulin level-elevating effect (in words): type 2 diabetic rat with sulfonylurea secondary failure; for plasma glucose level-lowering effect (in words): summary of Table 1; for plasma insulin level-elevating effect (in words): summary of Table 2 and Table 3
Method: (§1) Streptozocin (STZ) (120 mg/kg bodyweight) was administered to a 1.5-day-old male WKY rat to obtain a type 2 diabetes model, N-STZ-1.5 rat.
N-STZ-1.5 rats (male, 24 animals) received orally glibenclamide (10 mg/kg bodyweight/day) for 4 weeks to become a model of type 2 diabetes with sulfonylurea secondary failure. Then, the rats were divided into 4 groups of Groups A to D (6 animals each).
Then, each rat received orally 1 g/kg bodyweight of glucose solution. Before administration of glucose (before and after administration of the test compound) and 10 and 60 minutes after administration of glucose solution, blood samples were taken from the caudal vein of the rat and then the plasma glucose level and the plasma insulin level were determined.
The plasma glucose level was determined by an enzymatic method using L type WakoGlu2 (trade name, Wako Pure Chemical Industries, Ltd.), and the plasma insulin level was determined by radioimmunoassay using Shionoria Insulin Kit (trade name, Shionogi & Co., Ltd.).
The increment of plasma glucose level 60 minutes after administration of glucose solution (from 0 to 60 minutes after sugar loading); the increment of plasma insulin level 10 minutes after administration of glucose solution (from before administration of the test compound to 10 minutes after sugar loading); and the increment of plasma insulin level 10 minutes after administration of glucose solution (from 0 to 60 minutes after sugar loading) are shown in Table 1, Table 2 and Table 3, respectively. The values in the tables are mean values (n=6).

[2] = system: N-STZ-1.5 rat (type 2 diabetes model); test: Oral glucose loading in N-STZ-1.5 rats after 4 weeks of methylcellulose (Group M) or glibenclamide (Group G) (Experimental Example 2); format: in vivo; conditions: for Increment of plasma insulin level / Increment of plasma glucose level: oral glibenclamide 10 mg/kg, mean, n=6; for Increment of plasma insulin level: 10 minutes after oral glucose 1 g/kg (from 0 to 60 minutes after sugar loading); for Increment of plasma glucose level: 60 minutes after oral glucose 1 g/kg; for plasma glucose level-lowering effect (in words): summary of Table 4; for plasma insulin level-elevating effect (in words): summary of Table 5
Method: as §1
N-STZ-1.5 rats (male, 24 animals) prepared in Experimental Example 1 were divided into 4 groups (6 animals each), of which 2 groups (hereinafter sometimes referred to as Group M) and the remaining 2 groups (hereinafter sometimes referred to as Group G) received orally a 0.5% methylcellulose suspension and glibenclamide (10 mg/kg bodyweight) respectively, for 4 weeks. After repeated administration for 4 weeks, one Group M and one Group G (control groups) received orally a 0.5% methylcellulose suspension and the other Group M and the other Group G received orally glibenclamide (10 mg/kg bodyweight).
Then, each rat received orally 1 g/kg bodyweight of glucose solution. Before administration of glucose solution and 10 and 60 minutes after the administration, blood samples were taken from the caudal vein of the rat and then the plasma glucose level and the plasma insulin level were determined.
The plasma glucose level and the plasma insulin level were determined in the same manner as in Experimental Example 1.
The increment of plasma glucose level 60 minutes after administration of glucose solution (from 0 to 60 minutes after sugar loading) and the increment of plasma insulin level 10 minutes after administration of glucose solution (from 0 to 60 minutes after sugar loading) are shown in Table 4 and Table 5, respectively. The values in the tables are mean values (n=6).

[3] = 10 minutes after oral glucose 1 g/kg (from before administration of the test compound to 10 min after sugar loading), oral glibenclamide 10 mg/kg, nateglinide 50 mg/kg, Compound A 3 mg/kg, mean, n=6
[4] = Group G (glibenclamide 10 mg/kg for 4 weeks)
[5] = Group M (0.5% methylcellulose for 4 weeks)

## COc1ccc(Cl)cc1C(=O)NCCc1ccc(S(=O)(=O)NC(=O)NC2CCCCC2)cc1 [glibenclamide]
[1]; [3]
  Increment of plasma insulin level: 18.03 μU/ml
[1]
  plasma glucose level-lowering effect (in words): no plasma glucose level-lowering effect
  plasma insulin level-elevating effect (in words): hardly plasma insulin level-elevating effect
[2]; [4]
  Increment of plasma insulin level: 22.76 μU/ml
  Increment of plasma glucose level: 180.65 mg/dL
[2]; Group G
  plasma glucose level-lowering effect (in words): the effect was not shown
  plasma insulin level-elevating effect (in words): the effect was not shown
[2]; [5]
  Increment of plasma insulin level: 49.70 μU/ml
  Increment of plasma glucose level: 51.72 mg/dL
[2]; Group M
  plasma glucose level-lowering effect (in words): showed plasma glucose level-lowering effect
  plasma insulin level-elevating effect (in words): showed plasma insulin level-elevating effect

## CC(C)[C@H]1CC[C@H](C(=O)N[C@H](Cc2ccccc2)C(=O)O)CC1 [nateglinide]
[1]; 10 minutes after oral glucose 1 g/kg (from 0 to 60 minutes after sugar loading), oral glibenclamide 10 mg/kg, nateglinide 50 mg/kg, Compound A 3 mg/kg, mean, n=6
  Increment of plasma insulin level: 16.78 μU/ml
[1]; [3]
  Increment of plasma insulin level: 18.76 μU/ml
[1]; 60 minutes after oral glucose 1 g/kg (0 to 60 min after sugar loading), rats pretreated with glibenclamide 10 mg/kg/day for 4 weeks, oral glibenclamide 10 mg/kg, nateglinide 50 mg/kg, Compound A 3 mg/kg, mean, n=6
  Increment of plasma glucose level: 185.95 mg/dL
[1]
  plasma glucose level-lowering effect (in words): no plasma glucose level-lowering effect
  plasma insulin level-elevating effect (in words): hardly plasma insulin level-elevating effect
